From patent US20250339569A1, “CARBONIC ANHYDRASE IX LIGANDS” (priority 2021, published 2025)
Starred links: 1 amine or outer side, 2 acyl side, 3 side chain; linkers in the order of their positions; H or OH if unused. Positions of bridges follow the written chain, without caps; N, C: chain ends. Non-standard residues stand in square brackets, D forms with d. Residues, ends and D or L forms follow the SMILES beside them. *: point of attachment. NH(CH2)3NH(O2Oc(DOTA)) = O=C(O)CN1CCN(CC(=O)O)CCN(CC(=O)NCCOCCOCC(=O)NCCCN*)CCN(CC(=O)O)CC1; NH(CH2)3NHDOTA = O=C(O)CN1CCN(CC(=O)O)CCN(CC(=O)NCCCN*)CCN(CC(=O)O)CC1; Desaminotyrosyl = O=C(CCc1ccc(O)cc1)*; mXylylene = c1cc(C[*:1])cc(C[*:2])c1; Propanoyl(3-OH) = O=C(CCO)*; Isovaleryl = CC(C)CC(=O)*

molecular target: T1, CAIX-expressing human HT-29 colorectal cancer cells (Homo sapiens, UniProt Q16790); assay: FACS binding assay (IC50 determination, competition with tracer 3BP-2776 or 3BP-4149); details: FACS competition on HT-29 cells, Tracer ID 3BP-2776 (10 nM, biotin-labeled), 4° C., 1 hour; read-out: pIC50 category (activity) (converted)
T1 construct: CAIX-expressing human HT-29 colorectal cancer cells; host or cells: HT-29 human colorectal cancer cells
Procedure, shortened: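 HT-29 cells in FACS buffer (PBS, 1% FCS) at 500.000 cells/ml were exposed to compounds competing with a labelled tracer, with biotinylated compounds detected by 1 μg/mL APC-streptavidin for 30 min on ice. APC/Cy5 median fluorescence was read by flow cytometry and IC50 derived by 4PL fit.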

Row | IC50 [nM] | SMILES
1 | < 10 | CC(C)C[C@@H]1NC(=O)[C@H](Cc2c[nH]c3ccccc23)NC(=O)[C@H](CC(=O)O)NC(=O)[C@H]2CCCN2C(=O)[C@H](CCC(=O)O)NC(=O)[C@@H](NC(=O)[C@H](Cc2ccc(O)cc2)NC(=O)CCO)CSCc2cccc(c2)CSC[C@@H](C(N)=O)NC(=O)[C@H](CO)NC(=O)[C@H](Cc2c[nH]c3ccccc23)NC(=O)[C@H]([C@@H](C)O)NC1=O [3BP-3730] ({Propanoyl(3-OH)}-YCE[dP]DWLTWSC-NH2; linker 2-11 via mXylylene)
2 | 10 to 79.4 | CC(C)C[C@@H]1NC(=O)[C@H](Cc2c[nH]c3ccccc23)NC(=O)[C@H](CC(=O)O)NC(=O)[C@H]2CCCN2C(=O)[C@H](CCC(=O)O)NC(=O)[C@@H](NC(=O)CCc2ccc(O)cc2)CSCc2cccc(c2)CSC[C@@H](C(N)=O)NC(=O)[C@H](CO)NC(=O)[C@H](Cc2c[nH]c3ccccc23)NC(=O)[C@H]([C@@H](C)O)NC1=O [3BP-3731] (Desaminotyrosyl-CE[dP]DWLTWSC-NH2; linker 1-10 via mXylylene)
3 | < 10 | CC(=O)N[C@H](C(=O)N[C@@H](Cc1ccccc1)C(=O)N[C@H]1CSCc2cccc(c2)CSC[C@@H](C(N)=O)NC(=O)[C@H](CCC(=O)NCCCNC(=O)COCCOCCNC(=O)CN2CCN(CC(=O)O)CCN(CC(=O)O)CCN(CC(=O)O)CC2)NC(=O)[C@H](Cc2c[nH]c3ccccc23)NC(=O)[C@H]([C@@H](C)O)NC(=O)[C@H](CC(C)C)NC(=O)[C@H](Cc2c[nH]c3ccccc23)NC(=O)[C@H](CC(=O)O)NC(=O)[C@H]2CCCN2C(=O)[C@H](CCC(=O)O)NC1=O)C(C)C [3BP-3733] (Ac-VFCE[dP]DWLTWE(NH(CH2)3NH(O2Oc(DOTA)))C-NH2; linker 3-12 via mXylylene)
4 | < 10 | CC(=O)N[C@@H](CO)C(=O)N[C@@H](CCCNC(=N)N)C(=O)N[C@H]1CSCc2cccc(c2)CSC[C@@H](C(N)=O)NC(=O)[C@H](CCC(=O)NCCCNC(=O)COCCOCCNC(=O)CN2CCN(CC(=O)O)CCN(CC(=O)O)CCN(CC(=O)O)CC2)NC(=O)[C@H](Cc2c[nH]c3ccccc23)NC(=O)[C@H]([C@@H](C)O)NC(=O)[C@H](CC(C)C)NC(=O)[C@H](Cc2c[nH]c3ccccc23)NC(=O)[C@H](CC(=O)O)NC(=O)[C@H]2CCCN2C(=O)[C@H](CCC(=O)O)NC1=O [3BP-3735] (Ac-SRCE[dP]DWLTWE(NH(CH2)3NH(O2Oc(DOTA)))C-NH2; linker 3-12 via mXylylene)
5 | < 10 | CC(=O)N[C@@H](Cc1ccc(O)cc1)C(=O)N[C@H]1CSCc2cccc(c2)CSC[C@@H](C(N)=O)NC(=O)[C@H](CCC(=O)NCCCNC(=O)CN2CCN(CC(=O)O)CCN(CC(=O)O)CCN(CC(=O)O)CC2)NC(=O)[C@H](Cc2c[nH]c3ccccc23)NC(=O)[C@H]([C@@H](C)O)NC(=O)[C@H](CC(C)C)NC(=O)[C@H](Cc2c[nH]c3ccccc23)NC(=O)[C@H](CC(=O)O)NC(=O)[C@H]2CCCN2C(=O)[C@H](CCC(=O)O)NC1=O [3BP-3841] (Ac-YCE[dP]DWLTWE(NH(CH2)3NHDOTA)C-NH2; linker 2-11 via mXylylene)
6 | < 10 | CC(=O)N[C@H](C(=O)N[C@@H](Cc1ccc(O)cc1)C(=O)N[C@H]1CSCc2cccc(c2)CSC[C@@H](C(N)=O)NC(=O)[C@H](CO)NC(=O)[C@H](Cc2c[nH]c3ccccc23)NC(=O)[C@@H]2CCC(=O)NCCCC[C@H](NC(=O)[C@H]3CCCN3C(=O)[C@H](CCC(=O)O)NC1=O)C(=O)N[C@@H](Cc1c[nH]c3ccccc13)C(=O)N[C@@H](CC(C)C)C(=O)N2)C(C)C [3BP-3890] (Ac-VYCE[dP]KWLEWSC-NH2; linker 3-12 via mXylylene; lactam 6-9)
7 | 10 to 79.4 | CC(=O)N[C@H](C(=O)N[C@@H](Cc1ccc(O)cc1)C(=O)N[C@H]1CSCc2cccc(c2)CSC[C@@H](C(N)=O)NC(=O)[C@H](CO)NC(=O)[C@H](Cc2c[nH]c3ccccc23)NC(=O)[C@@H]2CCCCNC(=O)CC[C@H](NC(=O)[C@H]3CCCN3C(=O)[C@H](CCC(=O)O)NC1=O)C(=O)N[C@@H](Cc1c[nH]c3ccccc13)C(=O)N[C@@H](CC(C)C)C(=O)N2)C(C)C [3BP-3901] (Ac-VYCE[dP]EWLKWSC-NH2; linker 3-12 via mXylylene; lactam 6-9)

The remaining lines, values behind:

Row | SMILES | IC50 [nM]
8 | CC(C)CC(=O)N[C@@H](CCC(=O)O)C(=O)N[C@H]1CSCc2cccc(c2)CSC[C@@H](C(N)=O)NC(=O)[C@H](CO)NC(=O)[C@H](Cc2c[nH]c3ccccc23)NC(=O)[C@H]([C@@H](C)O)NC(=O)[C@H](CC(C)C)NC(=O)[C@H](Cc2c[nH]c3ccccc23)NC(=O)[C@H](CC(=O)O)NC(=O)[C@H]2CCCN2C(=O)[C@H](CCC(=O)O)NC1=O [3BP-3728] (Isovaleryl-ECE[dP]DWLTWSC-NH2; linker 2-11 via mXylylene) | < 10
9 | CC(=O)N[C@@H](Cc1ccc(O)cc1)C(=O)N[C@H]1CSCc2cccc(c2)CSC[C@@H](C(N)=O)NC(=O)[C@H](CO)NC(=O)[C@H](Cc2c[nH]c3ccccc23)NC(=O)[C@H]([C@@H](C)O)NC(=O)[C@H](CC(C)C)NC(=O)[C@H](Cc2c[nH]c3ccccc23)NC(=O)[C@H](CC(=O)O)NC(=O)[C@H]2CCCN2C(=O)[C@H](CCC(=O)O)NC1=O [3BP-3729] (Ac-YCE[dP]DWLTWSC-NH2; linker 2-11 via mXylylene) | < 10
10 | CC(C)CC(=O)N[C@@H](CCCNC(=N)N)C(=O)N[C@H]1CSCc2cccc(c2)CSC[C@@H](C(N)=O)NC(=O)[C@H](CCC(=O)NCCCNC(=O)COCCOCCNC(=O)CN2CCN(CC(=O)O)CCN(CC(=O)O)CCN(CC(=O)O)CC2)NC(=O)[C@H](Cc2c[nH]c3ccccc23)NC(=O)[C@H]([C@@H](C)O)NC(=O)[C@H](CC(C)C)NC(=O)[C@H](Cc2c[nH]c3ccccc23)NC(=O)[C@H](CC(=O)O)NC(=O)[C@H]2CCCN2C(=O)[C@H](CCC(=O)O)NC1=O [3BP-3741] (Isovaleryl-RCE[dP]DWLTWE(NH(CH2)3NH(O2Oc(DOTA)))C-NH2; linker 2-11 via mXylylene) | 10 to 79.4
11 | CC(C)CC(=O)N[C@@H](Cc1ccccc1)C(=O)N[C@H]1CSCc2cccc(c2)CSC[C@@H](C(N)=O)NC(=O)[C@H](CCC(=O)NCCCNC(=O)COCCOCCNC(=O)CN2CCN(CC(=O)O)CCN(CC(=O)O)CCN(CC(=O)O)CC2)NC(=O)[C@H](Cc2c[nH]c3ccccc23)NC(=O)[C@H]([C@@H](C)O)NC(=O)[C@H](CC(C)C)NC(=O)[C@H](Cc2c[nH]c3ccccc23)NC(=O)[C@H](CC(=O)O)NC(=O)[C@H]2CCCN2C(=O)[C@H](CCC(=O)O)NC1=O [3BP-3742] (Isovaleryl-FCE[dP]DWLTWE(NH(CH2)3NH(O2Oc(DOTA)))C-NH2; linker 2-11 via mXylylene) | < 10
12 | CC(C)CC(=O)N[C@@H](CO)C(=O)N[C@H]1CSCc2cccc(c2)CSC[C@@H](C(N)=O)NC(=O)[C@H](CCC(=O)NCCCNC(=O)COCCOCCNC(=O)CN2CCN(CC(=O)O)CCN(CC(=O)O)CCN(CC(=O)O)CC2)NC(=O)[C@H](Cc2c[nH]c3ccccc23)NC(=O)[C@H]([C@@H](C)O)NC(=O)[C@H](CC(C)C)NC(=O)[C@H](Cc2c[nH]c3ccccc23)NC(=O)[C@H](CC(=O)O)NC(=O)[C@H]2CCCN2C(=O)[C@H](CCC(=O)O)NC1=O [3BP-3743] (Isovaleryl-SCE[dP]DWLTWE(NH(CH2)3NH(O2Oc(DOTA)))C-NH2; linker 2-11 via mXylylene) | < 10
13 | CC(C)CC(=O)N[C@@H](CC(=O)O)C(=O)N[C@H]1CSCc2cccc(c2)CSC[C@@H](C(N)=O)NC(=O)[C@H](CCC(=O)NCCCNC(=O)COCCOCCNC(=O)CN2CCN(CC(=O)O)CCN(CC(=O)O)CCN(CC(=O)O)CC2)NC(=O)[C@H](Cc2c[nH]c3ccccc23)NC(=O)[C@H]([C@@H](C)O)NC(=O)[C@H](CC(C)C)NC(=O)[C@H](Cc2c[nH]c3ccccc23)NC(=O)[C@H](CC(=O)O)NC(=O)[C@H]2CCCN2C(=O)[C@H](CCC(=O)O)NC1=O [3BP-3871] (Isovaleryl-DCE[dP]DWLTWE(NH(CH2)3NH(O2Oc(DOTA)))C-NH2; linker 2-11 via mXylylene) | 10 to 79.4
14 | CC(C)CC(=O)N[C@@H](CCC(=O)O)C(=O)N[C@H]1CSCc2cccc(c2)CSC[C@@H](C(N)=O)NC(=O)[C@H](CCC(=O)NCCCNC(=O)COCCOCCNC(=O)CN2CCN(CC(=O)O)CCN(CC(=O)O)CCN(CC(=O)O)CC2)NC(=O)[C@H](Cc2c[nH]c3ccccc23)NC(=O)[C@H]([C@@H](C)O)NC(=O)[C@H](CC(C)C)NC(=O)[C@H](Cc2c[nH]c3ccccc23)NC(=O)[C@H](CC(=O)O)NC(=O)[C@H]2CCCN2C(=O)[C@H](CCC(=O)O)NC1=O [3BP-3872] (Isovaleryl-ECE[dP]DWLTWE(NH(CH2)3NH(O2Oc(DOTA)))C-NH2; linker 2-11 via mXylylene) | 10 to 79.4
15 | CC(=O)N[C@H](C(=O)N[C@@H](Cc1ccc(O)cc1)C(=O)N[C@H]1CSCc2cccc(c2)CSC[C@@H](C(N)=O)NC(=O)[C@H](CO)NC(=O)[C@H](Cc2c[nH]c3ccccc23)NC(=O)[C@@H]2CCC(=O)NCCCC[C@H](NC1=O)C(=O)N1CCC[C@@H]1C(=O)N[C@@H](CC(=O)O)C(=O)N[C@@H](Cc1c[nH]c3ccccc13)C(=O)N[C@@H](CC(C)C)C(=O)N2)C(C)C [3BP-3888] (Ac-VYCK[dP]DWLEWSC-NH2; linker 3-12 via mXylylene; lactam 4-9) | 10 to 79.4
16 | CC(=O)N[C@H](C(=O)N[C@@H](Cc1ccc(O)cc1)C(=O)N[C@H]1CSCc2cccc(c2)CSC[C@@H](C(N)=O)NC(=O)[C@H](CO)NC(=O)[C@H](Cc2c[nH]c3ccccc23)NC(=O)[C@@H]2CCCCNC(=O)CC[C@H](NC1=O)C(=O)N1CCC[C@@H]1C(=O)N[C@@H](CC(=O)O)C(=O)N[C@@H](Cc1c[nH]c3ccccc13)C(=O)N[C@@H](CC(C)C)C(=O)N2)C(C)C [3BP-3899] (Ac-VYCE[dP]DWLKWSC-NH2; linker 3-12 via mXylylene; lactam 4-9) | 100 to 794
